Structures are written as SMILES.

This test concerns the target T1, peroxidasin (Mus musculus, UniProt Q3UQ28).
T1 construct: Cultured murine PFHR9 cells synthesize collagen IV networks that contain sulfilimine crosslinks due to the activity of PXDN; endogenous in cells; host or cells: PFHR-9 cells (isolated matrix from KI-treated culture)
T1 sequence (Q3UQ28 24-1475): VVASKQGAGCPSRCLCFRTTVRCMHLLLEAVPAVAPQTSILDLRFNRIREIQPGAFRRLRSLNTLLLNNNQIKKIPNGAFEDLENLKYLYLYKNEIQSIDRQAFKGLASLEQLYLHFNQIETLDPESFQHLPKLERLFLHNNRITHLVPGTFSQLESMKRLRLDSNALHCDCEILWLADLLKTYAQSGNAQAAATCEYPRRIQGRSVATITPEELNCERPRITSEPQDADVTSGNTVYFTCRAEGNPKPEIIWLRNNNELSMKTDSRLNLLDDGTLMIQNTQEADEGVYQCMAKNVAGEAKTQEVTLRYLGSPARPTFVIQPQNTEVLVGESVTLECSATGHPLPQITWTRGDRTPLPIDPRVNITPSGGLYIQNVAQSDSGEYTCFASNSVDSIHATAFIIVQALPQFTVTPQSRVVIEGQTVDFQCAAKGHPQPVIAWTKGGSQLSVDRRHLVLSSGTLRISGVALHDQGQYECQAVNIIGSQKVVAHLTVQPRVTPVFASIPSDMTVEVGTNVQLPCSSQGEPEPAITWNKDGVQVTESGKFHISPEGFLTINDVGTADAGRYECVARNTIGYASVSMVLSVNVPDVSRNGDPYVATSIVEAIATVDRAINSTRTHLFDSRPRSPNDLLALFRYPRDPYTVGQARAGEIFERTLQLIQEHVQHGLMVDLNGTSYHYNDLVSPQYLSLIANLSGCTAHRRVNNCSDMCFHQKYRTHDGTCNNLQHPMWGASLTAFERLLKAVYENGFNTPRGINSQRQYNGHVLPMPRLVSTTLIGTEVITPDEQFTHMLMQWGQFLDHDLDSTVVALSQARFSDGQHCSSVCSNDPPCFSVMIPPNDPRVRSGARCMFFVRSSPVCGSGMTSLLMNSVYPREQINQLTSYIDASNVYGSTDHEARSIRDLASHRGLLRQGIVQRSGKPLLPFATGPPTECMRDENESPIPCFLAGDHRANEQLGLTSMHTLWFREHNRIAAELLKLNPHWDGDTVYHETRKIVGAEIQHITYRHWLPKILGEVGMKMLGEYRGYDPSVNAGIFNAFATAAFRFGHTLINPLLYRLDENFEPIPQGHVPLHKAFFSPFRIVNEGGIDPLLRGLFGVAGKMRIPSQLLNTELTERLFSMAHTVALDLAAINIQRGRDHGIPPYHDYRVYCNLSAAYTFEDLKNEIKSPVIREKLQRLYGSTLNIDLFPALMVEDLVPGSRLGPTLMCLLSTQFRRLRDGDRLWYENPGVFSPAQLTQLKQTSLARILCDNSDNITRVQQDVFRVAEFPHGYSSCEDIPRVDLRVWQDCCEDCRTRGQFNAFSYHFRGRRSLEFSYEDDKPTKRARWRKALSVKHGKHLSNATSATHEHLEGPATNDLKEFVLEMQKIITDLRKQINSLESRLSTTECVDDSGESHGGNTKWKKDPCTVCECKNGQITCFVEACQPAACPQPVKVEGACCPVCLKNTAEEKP
Nature of the test: In vitro basement membrane (uncrosslinked PFHR-9 matrix) reaction with halides and H2O2. In kind it is biochemical. As for the experimental part: (FIG. 8A) Matrix pellets isolated from KI-treated PFHR9 cell culture were extensively washed into 10 mM phosphate buffer (pH 7.4) supplemented with 100 mM KF to maintain ionic strength. Potassium salts of Cl— or Br— were added in indicated amounts. 1 hr reactions at 37° C. were initiated by addition of H2O2 to 1 mM and stopped by freezing at −20° C. Coomassie blue-stained gels after collagenase digestion of the samples and SDS-PAGE (FIG. 8B) Schematic of Br-Free chloride salt purification apparatus and setup. […] Reagent KCl was commercially obtained and unaltered prior to analysis. 100 mM solutions were made with 18MΩ deionized water. (FIG. 8C) Coomassie blue stained gel of collagenase digested PFHR-9 matrix reaction assay. Reaction buffered contained 10 mM phosphate buffer (pH 7.4), 100 mM Br-Free or Commercially obtained reagent grade KCl, as well as 1 mM H2O2 and 200 μM PHG where appropriate. (FIG. 8D) SDS-PAGE and coomassie blue stain of hPXDN (27.25 nM) and NC1 domain (1.3 μM) reaction and subsequent densiometric quantitation of S═N bond formation stiochiometry in response to NaBr addition. hPXDN and PFHR-9 NC1 domain were prepared and purified as described (5), except with all buffers for all purification steps (dialysis, chromatography, gradient ultracentrifugation) made with Br-Free chloride salts. Reactions were run for 10 minutes at 37° C. with 10 μM H2O2 as the terminal oxidant. Dose-response curve run in the presence of 1× Br-Free PBS. Reactions were quenched with 0.2 mg/ml Catalase, 20 mM Methionine, and 1 mM PHG. EC50 value±95% C.I. from two independent experiments with each data point plotted and fit.
Uncrosslinked PFHR9 matrix was extensively washed into 10 mM phosphate buffer (pH 7.4) that was supplemented with 100 mM KF to maintain ionic strength. One hour reactions at 37° C. were initiated by addition of H2O2 to 1 mM and stopped by freezing at −20° C. […] Samples were digested with collagenase at 37° C. overnight and visualized by SDS-PAGE using 12% gels under non-reducing conditions with Coomassie staining.
PFHR-9 cells treated with potassium iodide (1-10 mM) to eliminate NC1 hexamer crosslinks were used for basement membrane isolation. To test halide dependency, the inventors established halide-free conditions by washing extensively (at least five times) with 10 mM sodium phosphate pH 7.4. To try to extract or inactivate endogenous basement membrane peroxidase activity, the inventors extracted the matrix preparation twice with 2M guanidine-Cl, 50 mM Tris-Cl pH 7.5 and 10 mM EDTA-Na pH 8 followed by extensive washing with 1×PBS. Basement membrane was resuspended in the desired buffer with or without cofactors and inhibitors to examine in vitro NC1 crosslinking under various conditions. Basement membranes were collagenase solubilized to delineate collagen IV NC1 sulfilimine crosslink formation with SDS-PAGE and Coomassie blue staining membrane was isolated, washed extensively and resuspended in 1×PBS. Azide (0-10 mM) and 1 mM H2O2 were added and allowed to react for 1 h at 37° C. The matrix was pelleted, washed extensively with 1×PBS and solubilized with 1×PBS plus 2% (w/v) SDS. Solubilized proteins were reacted with 100 μM Tris[(1-benzyl-1H-1,2,3-triazol-4-yl)methyl]amine (Anaspec), 1 mM Tris(2-carboxyethyl)phosphine hydrochloride (ThermoFisher Pierce), 1 mM cupric sulfate and 100 μM biotin alkyne (PEG4 carboxamide-propargyl biotin; Life Technologies) for 1 h at 37° C. Click chemistry reactions were quenched with 1 mM 3′-azido-3′-deoxythymidine (Sigma). For avidin-HRP detection, samples were electrophoresed under reducing conditions, transferred to nitrocellulose membranes and probed with streptavidin-HRP according to manufacturer instructions (ThermoFisher Pierce). To isolate biotinylated proteins, the inventors precipitated click reaction products with two volumes of cold acetone to remove reactants, washed them with 70% (v/v) acetone and then resolubilized them in 1×PBS plus 2% SDS.

As to `Br` [bromide], the “crosslink formation on bromide addition to Br-free chloride” value was “restored”, the “halide concentration at which crosslinked dimeric subunits formed” value is about 100 mM and the “halide concentration permitting enzymatic crosslinking within purified matrix” value was 10 µM. Under “pH 7.4”, the “S═N bond formation in isolated matrix” value is “robustly catalyzed bond formation at 10 μM”.

Source of the values: patent US10183039B2, “Methods for the production of collagen IV” (Vanderbilt University, priority 2013, dated 2019).
